# Data as given in the supplement of paper PMC10307832.
# Tests used:
# Assay in all cases: relative viability (nuclei count vs DMSO), 5 days (fraction); higher = more cells survive
# [1] = compound: CC1=C(C(=NN1)C)CC2=C(C3=C(S2)N(C(=O)N(C3=O)C)CC(C)C)C(=O)N4C[C@@H](CO4)O + CC(C)C[C@H](NC(=O)[C@H](Cc1ccccc1)NC(=O)c1cnccn1)B(O)O [Bortezomib] (partner 0.002 µM)
# Method in brief: (§1)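 Lung cancer cell lines were pin-tool dosed in 1536-well plates on the day after seeding, with either a lone drug or a fixed anchor-drug dose plus five library-drug doses (not always all listed) in √10 steps. Nuclei were counted on 4× images after 5 days. Relative viability is the ratio of treated-well to vehicle-well nuclei counts, with each value a median of duplicate plates.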
# IDH-C35 + Palbociclib = compound: Cc1ccccc1C(C(=O)NC1CCCCC1)N(C(=O)Cn1ccnc1C)c1cccc(F)c1 [IDH-C35] + CC(=O)c1c(C)c2cnc(Nc3ccc(N4CCNCC4)cn3)nc2n(C2CCCC2)c1=O [Palbociclib] (partner 0.5 µM)
# Method in brief: as §1
# [2] = compound: CC1=C(C(=NN1)C)CC2=C(C3=C(S2)N(C(=O)N(C3=O)C)CC(C)C)C(=O)N4C[C@@H](CO4)O + C[C@]1(O)C[C@@H](c2nc(-c3ccc4ccc(-c5ccccc5)nc4c3)c3c(N)nccn32)C1 [Linsitinib] (partner 1 µM)
# Method in brief: as §1
# IDH-C35 + Dasatinib = compound: Cc1ccccc1C(C(=O)NC1CCCCC1)N(C(=O)Cn1ccnc1C)c1cccc(F)c1 [IDH-C35] + Cc1nc(Nc2ncc(C(=O)Nc3c(C)cccc3Cl)s2)cc(N2CCN(CCO)CC2)n1 [Dasatinib] (partner 0.075 µM)
# Method in brief: as §1
Cell Line,relative viability ([1]; first compound 0.0025 µM),relative viability ([1]; first compound 0.007906 µM),relative viability ([1]; first compound 0.025 µM),relative viability ([1]; first compound 0.07906 µM),relative viability ([1]; first compound 0.25 µM),relative viability (IDH-C35 + Palbociclib; first compound 0.08 µM),relative viability (IDH-C35 + Palbociclib; first compound 0.253 µM),relative viability (IDH-C35 + Palbociclib; first compound 0.8 µM),relative viability (IDH-C35 + Palbociclib; first compound 2.53 µM),relative viability (IDH-C35 + Palbociclib; first compound 8 µM),relative viability ([2]; first compound 0.0025 µM),relative viability ([2]; first compound 0.007906 µM),relative viability ([2]; first compound 0.025 µM),relative viability ([2]; first compound 0.07906 µM),relative viability ([2]; first compound 0.25 µM),relative viability (IDH-C35 + Dasatinib; first compound 0.08 µM),relative viability (IDH-C35 + Dasatinib; first compound 0.253 µM),relative viability (IDH-C35 + Dasatinib; first compound 0.8 µM),relative viability (IDH-C35 + Dasatinib; first compound 2.53 µM),relative viability (IDH-C35 + Dasatinib; first compound 8 µM)
NCI-H2085,1.04,0.978,0.947,0.98,0.926,0.448,0.476,0.495,0.492,0.456,0.953,0.956,0.814,0.844,0.77,0.275,0.261,0.223,0.277,0.266
NCI-H2087,0.996,0.716,0.705,0.909,1.05,0.225,0.211,0.24,0.308,0.228,0.962,1.08,1.02,1.02,0.928,0.944,0.995,0.9,–,0.814
NCI-H2126,1.11,1.15,1.07,1.07,1.15,0.349,0.362,0.333,0.351,0.359,0.712,0.789,0.673,0.72,0.67,0.6,0.651,0.596,0.605,0.588
NCI-H2228,0.996,1.09,1.11,0.97,1.47,0.795,0.728,0.738,0.723,0.728,0.912,1.07,0.672,0.764,0.674,0.571,0.526,0.509,0.53,0.537
NCI-H2347,1.09,1.15,0.684,0.718,0.852,0.432,0.469,0.42,0.475,0.448,0.992,0.944,0.956,0.894,1.03,0.337,0.3,0.243,0.343,0.282
NCI-H2405,0.991,0.912,0.918,0.858,0.941,0.538,0.512,0.525,0.561,0.525,0.972,0.902,–,0.881,0.73,0.209,0.212,0.213,0.206,0.184
NCI-H3122,0.963,0.978,1,0.99,1.02,0.183,0.178,0.186,0.187,0.182,1.04,1.08,0.99,0.976,0.947,0.725,0.487,0.56,0.865,0.777
PC-3 [JPC-3],0.949,0.869,0.886,0.79,0.786,0.563,0.532,0.558,0.587,0.534,0.966,0.945,0.974,0.958,1.01,1,0.923,1.02,0.989,0.972
PC-14,0.841,0.86,0.896,0.972,1.03,0.515,0.511,0.484,0.573,0.441,1.06,1.02,0.93,0.936,0.94,0.302,0.277,0.271,0.247,0.221
RERF-LC-KJ,1.01,1.23,1.22,1.06,1.21,1.08,1.03,0.991,1.1,1.09,0.973,0.931,0.925,0.899,0.95,0.894,0.76,0.898,0.964,0.761
SK-LU-1,1.15,0.752,0.425,0.789,0.541,0.47,0.387,0.366,0.391,0.418,0.86,0.712,0.711,0.774,0.731,0.188,0.181,0.172,0.177,0.191
SW 1573,1.09,1.13,1.1,1.07,0.893,0.43,0.432,0.388,0.462,0.353,0.869,0.905,0.869,0.804,0.782,0.571,0.545,0.545,0.549,0.38
